# Assay results as given in the supplement of paper PMC11616607.
# Experiments:
# Assay in all cases: drug sensitivity score (DSS) from 5-point dose-response viability curve (DSS (area-under-curve based score)); higher = more sensitive (stronger growth inhibition or killing); extreme values may be limits of the assay
# Details in all cases: exposure time: 72 h; concentration range: 5 concentrations over 10,000-fold range
# OVCAR8 = system: OVCAR8
# Procedure, shortened: (§1)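 For the drug sensitivity score, obtained per cell line and drug in Breeze software, larger values mean greater sensitivity. No response corresponds to a score of zero. Ovarian cancer and normal ovarian cells were seeded at 1,500 per well into 384-well plates already holding acoustically dispensed drugs (Echo 550, DMSO or water, five concentrations over a 10,000-fold range) and incubated 3 days at 37°C, 5% CO2. CellTiter-Glo luminescence on a PHERAstar FS gave the viability readout.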
# COV362 = system: COV362
# Procedure, shortened: as §1
# Kuramochi = system: Kuramochi
# Procedure, shortened: as §1
# OVCAR4 = system: OVCAR4
# Procedure, shortened: as §1
# Ovsaho = system: Ovsaho
# Procedure, shortened: as §1
# CAOV3 = system: CAOV3
# Procedure, shortened: as §1
# JHOS2 = system: JHOS2
# Procedure, shortened: as §1
# OVCAR5 = system: OVCAR5
# Procedure, shortened: as §1
# COV318 = system: COV318
# Procedure, shortened: as §1
# HOSE2C = system: HOSE2C
# Procedure, shortened: as §1
# OV90 = system: OV90
# Procedure, shortened: as §1
# HOSE1C = system: HOSE1C
# Procedure, shortened: as §1
SMILES,drug sensitivity score (OVCAR8),drug sensitivity score (COV362),drug sensitivity score (Kuramochi),drug sensitivity score (OVCAR4),drug sensitivity score (Ovsaho),drug sensitivity score (CAOV3),drug sensitivity score (JHOS2),drug sensitivity score (OVCAR5),drug sensitivity score (COV318),drug sensitivity score (HOSE2C),drug sensitivity score (OV90),drug sensitivity score (HOSE1C)
CO[C@H]1C[C@@H]2CC[C@@H](C)[C@@](O)(O2)C(=O)C(=O)N2CCCC[C@H]2C(=O)O[C@H]([C@H](C)C[C@@H]2CC[C@@H](OCCO)[C@H](OC)C2)CC(=O)[C@H](C)/C=C(\C)[C@@H](O)[C@@H](OC)C(=O)[C@H](C)C[C@H](C)/C=C/C=C/C=C/1C [Everolimus],5.5,0.6,5.9,2.5,4,4.8,4.7,6.2,2.2,6.3,10,4.3
C=C1C[C@@H]2[C@H](CC[C@]3(C)C(=O)CC[C@@H]23)[C@@]2(C)C=CC(=O)C=C12 [Exemestane],0,0,0,0,0,0,0,0,0,0,0.4,0
CCn1c(=O)c(-c2ccc(Cl)cc2Cl)cc2cnc(Nc3ccc(N4CCNCC4)c(F)c3)nc21 [FRAX486],3.8,6.3,4.3,5.1,7,4.2,3.7,4.9,4.2,12.1,5.5,7.6
Cc1cnc(Nc2ccc(OCCN3CCCC3)cc2)nc1Nc1cccc(S(=O)(=O)NC(C)(C)C)c1 [Fedratinib],7.1,6.1,7.7,5.2,7.4,6.5,5.3,7.2,3.7,8.5,8.8,7.1
CON(C)C(=O)N1N=C(c2cc(F)ccc2F)S[C@@]1(CCCN)c1ccccc1 [Filanesib],17.7,1.4,9.5,6.8,8.8,21.3,7.4,17.6,8.7,16.2,10.8,21.8
O=C(Nc1nc2cccc(-c3ccc(CN4CCS(=O)(=O)CC4)cc3)n2n1)C1CC1 [Filgotinib],2.5,0.2,5.1,2.6,2.5,2.3,1.1,1.8,3.4,0,3.2,0.1
CC(C)(C)NC(=O)[C@H]1CC[C@H]2[C@@H]3CC[C@H]4NC(=O)C=C[C@]4(C)[C@H]3CC[C@]12C [Finasteride],0,0,0,0,0,0,0,0,0,0,0,0
CCCCCCCCc1ccc(CCC(N)(CO)CO)cc1 [Fingolimod],6.8,6.2,7.5,7.5,7.6,6,5.5,6.4,7,5.4,6.2,7.4
O=c1[nH]c(=O)n([C@H]2C[C@H](O)[C@@H](CO)O2)cc1F [Floxuridine],18.1,5.4,8.7,9.3,6.2,14.3,0.8,8.1,0,2.5,12.3,4.7
Nc1nc(F)nc2c1ncn2[C@@H]1O[C@H](CO)[C@@H](O)[C@@H]1O [Fludarabine],4.4,0.5,0,0.2,0.1,0.2,0,0,0,22.6,1.5,25.2
O=c1[nH]cc(F)c(=O)[nH]1 [Fluorouracil],2.3,0,0.6,0,2.6,2,0,2.7,0,0,2.3,2.5
CC(C)C(=O)Nc1ccc([N+](=O)[O-])c(C(F)(F)F)c1 [Flutamide],0.3,0,0.7,0.5,0,0,0.3,0.1,0.2,0,0,0.2
COc1cc2c(Oc3ccc(NC(=O)C4(C(=O)Nc5ccc(F)cc5)CC4)cc3F)ccnc2cc1OCCCN1CCOCC1 [Foretinib],1,1.2,2.7,3.2,1.9,6.9,0.5,5.3,1.3,4.5,3.8,1.9
COc1cc(Nc2ncc(F)c(Nc3ccc4c(n3)N(COP(=O)(O)O)C(=O)C(C)(C)O4)n2)cc(OC)c1OC [Fostamatinib],0.3,0.8,2.4,2.9,2.4,0,0.8,3.7,1.5,8.4,2.9,2
C[C@]12CC[C@@H]3c4ccc(O)cc4C[C@@H](CCCCCCCCC[S+]([O-])CCCC(F)(F)C(F)(F)F)[C@H]3[C@@H]1CC[C@@H]2O (some centres undefined) [Fulvestrant],0,0,0,0,0,0,0,0,0,0,0,0
O=C(NOCCO)c1ccc2cncn2c1Nc1ccc(I)cc1F [GDC-0623],0.4,2.3,0.1,6.3,0.8,5,0.6,6.1,0,1.3,16.3,0
C[C@H]1CN(C2COC2)CCN1c1ccc(Nc2cc(-c3ccnc(N4CCn5c(cc6c5CC(C)(C)C6)C4=O)c3CO)cn(C)c2=O)nc1 [GDC-0853],0,0,0,0,0,0,0,0,0,0,0,0
O[C@H](C[C@H]1c2c(F)cccc2-c2cncn21)[C@H]1CC[C@H](O)CC1 [GDC-0919],0.7,0,0.1,0.8,0,0.1,0.4,0.6,3,0,0,0
CNc1nc(Nc2cn(C(C)(C)C#N)nc2C)ncc1C(F)(F)F [GNE-0877],0,0,0,0,0,0,0,0,0,0,0,0
CCNc1nc(Nc2cc(F)c(C(=O)N3CCOCC3)cc2OC)ncc1C(F)(F)F [GNE-7915],0,0,0,0,0,0,0,0,0,0,0,0
CCCc1cc(C)[nH]c(=O)c1CNC(=O)c1cc(-c2ccnc(N3CCN(C)CC3)c2)cc2c1cnn2C(C)C [GSK343],0,0,0,0,0,0,0,0,0,0,0,0
CCCOc1ccn2c(C(C)=O)cc(-c3ccccc3S(C)(=O)=O)c2c1 [GSK2801],0,0,0.4,0,0,0,0,0,0,0,0,0
CCOC(=O)CCNc1cc(N2CCc3ccccc3CC2)nc(-c2ccccn2)n1 [GSK-J4],1.5,0,9,2.9,1.9,1.6,0,0.6,6.9,0.8,4.6,2.5
C[C@@H]1C=C2C(=O)O[C@@H]3CC[C@H](C1)[C@]23O [Galiellalactone],3.6,2.9,0,6.5,4.6,6.1,5.6,7.6,3.8,7.3,7.1,8.1
Cc1cccc(-c2nn3c(c2-c2ccnc4ccc(C(N)=O)cc24)CCC3)n1 [Galunisertib],0,1.8,0,0,0,0,0,0,0.3,0,0,0
Cc1cc(Nc2cc(CN3CCOCC3)c3nc(C)c(Cc4ccc(Cl)cc4F)n3n2)n[nH]1 [Gandotinib],7.1,4.6,5.9,4,6.7,5.9,3.1,5.8,4.9,8.9,4.1,5.9
CC(C)c1cc(-c2n[nH]c(=O)n2-c2ccc3c(ccn3C)c2)c(O)cc1O [Ganetespib],17,12.7,11.9,11.3,5,16.2,18,13.6,10.3,26.1,15.3,22.9
